Key:
[1] = target: T1, RIPK2 and XIAP protein-protein interaction (Homo sapiens, UniProt O43353); assay: Inhibition of the interaction of RIPK2 with XIAP (NanoBRET in HEK293T cells); format: cell-based; settings: RIPK2 HaloTag / XIAP NanoLuc, read-out: NanoBRET Scaffolding IC50
T1 construct: the N-terminus of full-length RIPK2 was appended with the HaloTag fusion protein; expressed in transfected cells; host or cells: HEK293T
Excerpt: An assay measuring the RIPK2 and XIAP protein-protein interaction was generated using the NanoBRET protein:protein interaction system (Promega) which measures the energy transfer from a bioluminescent protein donor (NanoLuc fusion protein) to a fluorescent protein acceptor (Halotag fusion protein). In this assay, the C-terminus of full-length XIAP was appended with the NanoLuc fusion protein and the N-terminus of full-length RIPK2 was appended with the HaloTag fusion protein. Assay medium consisted of Opti-MEM I reduced serum medium with no phenol red plus 4% heat inactivated FBS. Transfection reagents were combined in a microfuge tube as follows: 400 μL of assay medium, 8 μL of vector with N-terminus of RIPK2 HaloTag fusion protein (vector concentration at 1 μg/μL), 0.8 μL of vector with C-terminus of XIAP NanoLuc fusion protein (vector concentration at 1 μg/μL), and 24 μL of FuGENE HD transfection reagent (Promega, catalogue number E2312). […] Test compounds were prepared into a 10 mM DMSO solution and were serially diluted into 10 points using a 3-fold dilution in a 384 well plate using a TECAN EV0200.
Method: HEK293T cells were transfected with the RIPK2 HaloTag fusion and XIAP NanoLuc fusion vectors in suspension. […] Transfection reagents were pre-mixed and incubated at room temperature for 30 minutes. Then the total transfection reagent mixture was added dropwise to the 16 mL cell suspension and mixed gently. 40 μL of the cells and transfection reagent suspension was plated into a white 384 well plate and incubated at 37° C. in a CO2 incubator for 24 hours. […] Lastly, a 3× solution of NanoBRET Nano-Glo substrate in Opti-MEM I reduced serum media (no phenol red; 20 μL total volume) was added to each well and incubated for 2-3 minutes at room temperature. The plate was then measured using 460 nm filter (donor emission) and 618 nm filter (acceptor emission) in an EnVision multimode plate reader (PerkinElmer). The NanoBRET ratio values were determined by dividing the acceptor emission value by the donor emission value for each sample.

RIPK2 enzyme = target: T2, RIPK2 enzyme (Homo sapiens, UniProt O43353); assay: RIPK2 inhibition (ADP-Glo Kinase Assay); format: biochemical; settings: RIPK2 5 nM, ATP 150 μM, MBP substrate, read-out: RIPK2 IC50
T2 construct: purchased Carna 09-128
Method in brief: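 Human RIPK2 (5 nM) preincubated with compound 30 min at room temperature in 50 mM HEPES pH 7.5, 10 mM MgCl2, 2 mM DTT, 1 mM EGTA, 0.01% Brij-35, 0.05% BSA; native swine MBP as substrate. ADP formed quantified by ADP-Glo luminescence; percent inhibition relative to DMSO and no-enzyme controls.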

human NOD2 signaling = assay: Inhibition of human NOD2 signaling in HEK-Blue-hNOD2 cells (L18-MDP stimulated, SEAP reporter); format: cell-based; settings: Homo sapiens, HEK-Blue hNOD2, HEK-Blue-hNOD2 cells, NOD2 ligand stimulation, SEAP reporter; read-out: hNOD2 IC50
Method in brief: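 HEK-Blue-hNOD2 cells (HEK293 with NOD2 and SEAP reporter), 12500/well, treated with 10-point 3-fold compound dilutions plus L18-MDP 0.5 ng/mL final, 24 h at 37 °C. Supernatant SEAP read with QUANTI-Blue after 3 h at 620 nm; IC50 by 4-parameter fit vs DMSO±L18-MDP controls.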

T1 sequence (O43353 whole entry, the tested form may be a part): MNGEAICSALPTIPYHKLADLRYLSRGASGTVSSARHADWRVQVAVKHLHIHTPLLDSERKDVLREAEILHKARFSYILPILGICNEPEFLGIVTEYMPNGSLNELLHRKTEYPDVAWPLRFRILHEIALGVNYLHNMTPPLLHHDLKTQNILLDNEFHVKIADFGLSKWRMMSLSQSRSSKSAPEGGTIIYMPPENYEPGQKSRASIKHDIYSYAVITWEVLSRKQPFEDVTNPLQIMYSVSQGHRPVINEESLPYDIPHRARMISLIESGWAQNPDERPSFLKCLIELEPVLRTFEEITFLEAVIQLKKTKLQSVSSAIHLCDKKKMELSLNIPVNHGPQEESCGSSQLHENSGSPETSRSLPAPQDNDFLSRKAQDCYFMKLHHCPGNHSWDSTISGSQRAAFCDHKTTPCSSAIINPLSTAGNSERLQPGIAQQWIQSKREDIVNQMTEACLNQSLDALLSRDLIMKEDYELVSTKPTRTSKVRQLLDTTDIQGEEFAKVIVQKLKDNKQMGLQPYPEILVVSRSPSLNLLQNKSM
T2 sequence (O43353 1-299 limits assumed): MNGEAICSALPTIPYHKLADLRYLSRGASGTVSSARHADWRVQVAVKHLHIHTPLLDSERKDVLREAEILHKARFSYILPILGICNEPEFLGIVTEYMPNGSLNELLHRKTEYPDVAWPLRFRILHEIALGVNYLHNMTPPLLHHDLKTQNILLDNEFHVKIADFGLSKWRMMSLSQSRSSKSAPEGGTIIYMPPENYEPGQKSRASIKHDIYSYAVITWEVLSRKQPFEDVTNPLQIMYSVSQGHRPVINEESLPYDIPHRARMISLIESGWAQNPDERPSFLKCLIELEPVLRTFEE

SMILES	IC50 [1] [nM]	IC50 (RIPK2 enzyme) [nM]	IC50 (human NOD2 signaling) [nM]
Cc1cc(CC(=O)Nc2cnn(C34CC(C3)C4)c2)ccc1Oc1ccnc2ccc(S(=N)(=O)C3CC3)cc12 (single isomer, unassigned) [Compound 529, N-(1-(bicyclo[1.1.1]pentan-1-yl)-1H-pyrazol-4-yl)-2-(4-((6-(cyclopropanesul-fonimidoyl)quinolin-4-yl)oxy)-3-methylphenyl) acetamide]	75	< 2.5	14.3
[2H]C([2H])([2H])NC(=O)c1ccc2nccc(Oc3cc(F)c(CC(=O)Nc4cnn(C56CC(C5)C6)c4)c(F)c3C)c2c1 [Compound 558, 4-(4-(2-((1-(bicyclo[1.1.1]pentan-1-yl)-1H-pyrazol-4-yl)amino)-2-oxoethyl)-3,5-difluoro-2-methylphenoxy)-N-(methyl-d3)quinoline-6-carboxamide]	57.3	< 2.5	0.7
[2H]C([2H])([2H])NC(=O)c1ccc2nccc(Oc3cc(F)c(CC(=O)Nc4cnn(C(C)(C)C)c4)c(F)c3C)c2c1 (single isomer, unassigned) [Compound 555, 4-(4-(2-((1-(tert-butyl)-1H-pyrazol-4-yl)amino)-2-oxoethyl)-3,5-difluoro-2-methylphenoxy)-N-(methyl-d3)quinoline-6-carboxamide]	7.3	< 2.5	0.1
Cc1cc(CC(=O)Nc2cnn(C(C)(C)C)c2)ccc1Oc1ccnc2ccc(CS(C)(=O)=O)cc12 [Compound 560, N-(1-(tert-butyl)-1H-pyrazol-4-yl)-2-(3-methyl-4-((6-((methylsulfonyl)methyl)quinolin-4-yl)oxy)phenyl)acetamide]	301	< 2.5	8.9
Cc1c(Oc2ccnc3ccc(C(N)=O)cc23)cc(F)c(CC(=O)Nc2cnn(C34CC(C3)C4)c2)c1F [Compound 556, 4-(4-(2-((1-(bicyclo[1.1.1]pentan-1-yl)-1H-pyrazol-4-yl)amino)-2-oxoethyl)-3,5-difluoro-2-methylphenoxy)quinoline-6-carboxamide]	42.1	< 2.5	0.9
[2H]C([2H])([2H])NC(=O)c1ccc2nccc(Oc3cc(F)c(CC(=O)Nc4cnn(C56CC(C5)C6)c4)cc3C)c2c1 (single isomer, unassigned) [Compound 563, 4-(4-(2-((1-(bicyclo[1.1.1]pentan-1-yl)-1H-pyrazol-4-yl)amino)-2-oxoethyl)-5-fluoro-2-methylphenoxy)-N-(methyl-d3)quinoline-6-carboxamide]	176	< 2.5	1.9
CNC(=O)c1cc2c(Oc3c(C)cc(CC(=O)Nc4cnn(C(C)(C)C)c4)cc3Cl)ccnc2cc1F [Compound 585, 4-(4-(2-((1-(tert-butyl)-1H-pyrazol-4-yl)amino)-2-oxoethyl)-2-chloro-6-methylphenoxy)-7-fluoro-N-methylquinoline-6-carboxamide]	29.3	< 2.5	0.9
CC1(NC(=O)c2ccc3nccc(Oc4cc(F)c(CC(=O)Nc5cnn(C(C)(C)C)c5)cc4Cl)c3c2)CC1 [Compound 517, 4-(4-(2-((1-(tert-butyl)-1H-pyrazol-4-yl)amino)-2-oxoethyl)-2-chloro-5-fluorophenoxy)-N-(1-methylcyclopropyl)quinoline-6-carboxamide]	311	< 2.5	2.7
CNCc1nnc(-c2ccc3nccc(Oc4cc(F)c(CC(=O)Nc5cnn(C(C)(C)C)c5)cc4C)c3c2)o1 [Compound 481, N-(1-(tert-butyl)-1H-pyrazol-4-yl)-2-(2-fluoro-5-methyl-4-((6-(5-((methylamino)methyl)-1,3,4-oxadiazol-2-yl)quinolin-4-yl)oxy)phenyl)acetamide]	4.5	< 2.5	4.2
CNC(=O)c1cc2c(Oc3c(C)cc(CC(=O)Nc4cnn(C(C)(C)C)c4)cc3C)ccnc2cc1F [Compound 582, 4-(4-(2-((1-(tert-butyl)-1H-pyrazol-4-yl)amino)-2-oxoethyl)-2,6-dimethylphenoxy)-7-fluoro-N-methylquinoline-6-carboxamide]	36.3	< 2.5	0.6
CNC(=O)c1ccc2nccc(Oc3ccc(CC(=O)Nc4cnn(C56CC(C5)C6)c4)cc3C)c2c1 [Compound 500, 4-(4-(2-((1-(bicyclo[1.1.1]pentan-1-yl)-1H-pyrazol-4-yl)amino)-2-oxoethyl)-2-methylphenoxy)-N-methylquinoline-6-carboxamide]	7.4	< 2.5	0.4
NC(=O)c1ccc2nccc(Oc3cc(F)c(CC(=O)Nc4cnn(C56CC(C5)C6)c4)cc3Cl)c2c1 [Compound 509, 4-(4-(2-((1-(bicyclo[1.1.1]pentan-1-yl)-1H-pyrazol-4-yl)amino)-2-oxoethyl)-2-chloro-5-fluorophenoxy)quinoline-6-carboxamide]	189	< 2.5	14.2
Cc1cc(CC(=O)Nc2cnn(C(C)(C)C)c2)c(F)cc1Oc1ccnc2ccc(S(=N)(=O)C3CC3)cc12 (single isomer, unassigned) [Compound 466, N-(1-(tert-butyl)-1H-pyrazol-4-yl)-2-(4-((6-(cyclopropane-sulfonimidoyl)quinolin-4-yl)oxy)-2-fluoro-5-methylphenyl) acetamide]	48	< 2.5	2.5
Cc1c(Oc2ccnc3ccc(CS(C)(=O)=O)cc23)cc(F)c(CC(=O)Nc2cnn(C(C)(C)C)c2)c1F [Compound 562, N-(1-(tert-butyl)-1H-pyrazol-4-yl)-2-(2,6-difluoro-3-methyl-4-((6-((methylsulfonyl)methyl)quinolin-4-yl)oxy)phenyl)acetamide]	61.1	< 2.5	1.2
CNC(=O)c1ccc2nccc(Oc3c(C)cc(CC(=O)Nc4cnn(C(C)(C)C)c4)cc3Cl)c2c1 [Compound 515, 4-(4-(2-((1-(tert-butyl)-1H-pyrazol-4-yl)amino)-2-oxoethyl)-2-chloro-6-methylphenoxy)-N-methylquinoline-6-carboxamide]	170	< 2.5	1.4
Cc1cc(CC(=O)Nc2cnn(C(C)(C)C)c2)c(F)cc1Oc1ccnc2ccc(-c3nccnc3C)cc12 [Compound 476, N-(1-(tert-butyl)-1H-pyrazol-4-yl)-2-(2-fluoro-5-methyl-4-((6-(3-methylpyrazin-2-yl)quinolin-4-yl)oxy)phenyl)acetamide]	52.1	< 2.5	5.9
CNC(=O)c1ccc2nccc(Oc3cc(F)c(CC(=O)Nc4cnn(C56CC(C5)C6)c4)cc3C)c2c1 [Compound 502, 4-(4-(2-((1-(bicyclo[1.1.1]pentan-1-yl)-1H-pyrazol-4-yl)amino)-2-oxoethyl)-5-fluoro-2-methylphenoxy)-N-methylquinoline-6-carboxamide]	17.5	< 2.5	0.8
CNC(=O)c1ccc2nccc(Oc3cc(F)c(CC(=O)Nc4cnn(C56CC(C5)C6)c4)c(F)c3C)c2c1 [Compound 557, 4-(4-(2-((1-(bicyclo[1.1.1]pentan-1-yl)-1H-pyrazol-4-yl)amino)-2-oxoethyl)-3,5-difluoro-2-methylphenoxy)-N-methylquinoline-6-carboxamide]	35.1	< 2.5	0.3
Cc1cc(CC(=O)Nc2cnn(C(C)(C)C)c2)ccc1Oc1ccnc2ccc(S(=N)(=O)C3CCC3)cc12 (single isomer, unassigned) [Compound 551, N-(1-(tert-butyl)-1H-pyrazol-4-yl)-2-(4-((6-(cyclobutanesulf-onimidoyl)quinolin-4-yl)oxy)-3-methylphenyl) acetamide]	87.1	< 2.5	1.7
